Reference: publication PMC12532338, “Characterization of a sesquiterpene synthase and a short-chain dehydrogenase in zerumbone biosynthesis and the applications in engineered Saccharomyces cerevisiae” (Frontiers in Plant Science, 2025)

Target: T1, CwTPS8 (Curcuma wenyujin, UniProt A0A8E5B8H5)
T1 construct: complete ORF in pMAL-His (pMAL-c2x with His(8)-tag), E. coli BL21(DE3), Ni-NTA purified; tag removal not described
Assay: GC-MS of hexane-extracted products
Type: biochemical
Details: formation of main product β-caryophyllene; 50 mM HEPES pH 7.5, 10 mM MgCl2, 5 mM DTT, 5% glycerol; 30°C, 10 min; 10-150 µM FPP; read-out: K m of β-caryophyllene

T1 sequence (A0A8E5B8H5 entry or part of it): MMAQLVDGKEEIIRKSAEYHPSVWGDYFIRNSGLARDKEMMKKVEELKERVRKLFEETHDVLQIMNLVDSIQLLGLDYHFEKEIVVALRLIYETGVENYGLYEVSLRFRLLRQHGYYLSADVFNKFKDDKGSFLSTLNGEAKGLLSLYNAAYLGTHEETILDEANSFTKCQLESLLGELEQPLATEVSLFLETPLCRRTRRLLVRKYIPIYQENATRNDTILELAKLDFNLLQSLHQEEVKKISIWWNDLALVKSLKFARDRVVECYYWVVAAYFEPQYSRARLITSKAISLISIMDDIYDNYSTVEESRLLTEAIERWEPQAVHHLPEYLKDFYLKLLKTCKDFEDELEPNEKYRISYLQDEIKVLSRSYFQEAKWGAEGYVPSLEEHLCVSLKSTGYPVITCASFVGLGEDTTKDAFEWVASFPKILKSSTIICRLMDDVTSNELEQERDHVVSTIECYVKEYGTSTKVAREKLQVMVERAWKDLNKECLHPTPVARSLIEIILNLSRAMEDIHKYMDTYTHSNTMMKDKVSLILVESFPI

CC(C)=CCC/C(C)=C/CC/C(C)=C/CO[P@@](=O)(O)OP(=O)(O)O [FPP]
Km: 28 µM
